{
  "source": "patent US7795253B2",
  "about": "“Condensed imidazole derivatives as aromatase inhibitors” (Novartis AG, priority 2006, dated 2010)",
  "molecular_target": "T1, recombinant human Cyp19 enzyme (Homo sapiens, UniProt P11511)",
  "T1 construct": "purchased Becton Dickinson Biosciences, San Jose, Calif., USA",
  "T1 sequence (P11511 1-503)": "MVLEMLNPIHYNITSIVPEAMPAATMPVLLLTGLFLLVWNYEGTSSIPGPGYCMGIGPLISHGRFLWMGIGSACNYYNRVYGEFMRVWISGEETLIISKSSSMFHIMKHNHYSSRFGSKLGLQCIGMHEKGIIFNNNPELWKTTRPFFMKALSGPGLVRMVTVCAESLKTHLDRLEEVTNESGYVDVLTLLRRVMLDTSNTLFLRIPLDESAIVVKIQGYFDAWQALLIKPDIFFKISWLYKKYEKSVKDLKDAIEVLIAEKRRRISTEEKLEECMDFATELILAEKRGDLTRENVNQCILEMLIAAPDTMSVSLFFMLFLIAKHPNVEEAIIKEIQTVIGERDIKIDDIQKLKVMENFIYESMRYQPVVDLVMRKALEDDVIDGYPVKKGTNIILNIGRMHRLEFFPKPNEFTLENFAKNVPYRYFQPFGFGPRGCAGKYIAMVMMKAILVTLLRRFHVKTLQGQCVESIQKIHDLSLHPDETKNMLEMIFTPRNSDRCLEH",
  "assay": "Cyp19/methoxy-4-trifluoromethyl-coumarin (MFC) high throughput inhibition kit",
  "format": "biochemical",
  "settings": "Cyp19 supersomes, MFC substrate",
  "method": "A compound of formula (I) is to be understood as a compound having a specific configuration around the designated asymmetric carbon atom labelled “*”. If a synthesis method is used which leads to racemic compounds, the racemate resolution is carried out in accordance with conventional methods, such as via a chiral HPLC column. […] The aforementioned activity can, readily and as described below, be determined by using a commercial Cyp19 enzyme inhibition kit, preferably the Cyp19/methoxy-4-trifluoromethyl-coumarin (MFC) high throughput inhibition kit (Becton Dickinson Biosciences, San Jose, Calif., USA) as described hereafter. In the above-mentioned inhibition kit, compounds of the formula (I) show an inhibiting activity which is at least 10 times higher, but preferably 20 times higher, or more preferably 40 times higher, than the substances of the formula (I) with the opposite configuration around the asymmetric carbon atom labelled “*”. A higher inhibiting activity corresponds to a lower IC50 value.\nThese effects are demonstrable in in vitro assay tests using cell-free and cellular systems. […] The Cyp19/Methoxy-4-trifluoromethyl-coumarin (MFC) high throughput inhibition kit (Becton Dickinson Biosciences, San Jose, Calif., USA), for example, is designed to screen for potential inhibitors of Cyp19 catalytic activity in a 96-well format. […]",
  "data": [
    {"smiles": "N#Cc1ccc(C2OCCn3cncc32)cc1", "note": "(stereo not shown) [antipode of 1]", "values": [
      {"measurement": "IC50", "value": 2.77, "unit": "µM"}
    ]}
  ]
}
